Source: article PMC9200803, “Design, synthesis, and biological evaluation of tetrahydroquinolinones and tetrahydroquinolines with anticancer activity” (Scientific Reports, 2022)

Assays:
[1] = system: HCT-116 cells; experiment: MTT cell viability assay, HCT-116; assay type: cell-based, human; conditions: MTT, 72 h, IC50 ± SD
Protocol: (§1) To evaluate the effects of the newly synthesized tetrahydroquinolin-2(1H)-one derivatives on cell viability, we treated human colon cancer cells HCT-116, human breast cancer cells MCF-7, and human non-small cell lung cancer cells A-549 with different concentrations of the compounds for 72 h. After incubation, the MTT (3-(4,5-dimethylthiazol-2-yl)-2,5-diphenyltetrazolium bromide) assay was performed and the cytotoxic potency of compounds (expressed in IC50) on the cells was determined in comparison to control cells treated with 1% of dimethyl sulfoxide (DMSO) (Table 1). […] We also compared the activity of 20d and 19b to the reference control drug Cisplatin, which is widely used in chemotherapy.
(§2) A-549 (CCL-185) and MCF-7 ([…]) cells were cultured in RPMI-1640 medium, while HCT-116 (CVCL-427), (hMLH1)-deficient (MMR^–) and hMLH1-proficient (MMR^+) RKO cells were cultured in McCoy’s 5A medium. The culture media were supplemented with 10% fetal bovine serum, 2 mM L-glutamine, and antibiotics (penicillin 62.6 µg/ml and streptomycin 40 µg/ml). Cultivation of cell lines was carried out at 37 °C under a humidified atmosphere containing 5% CO2, and the cultures were routinely screened for Mycoplasma contamination. A-549, MCF-7, and HCT-116 cells were obtained from American Type Culture Collection (ATCC), while RKO colon carcinoma cells were a kind gift of Dr Timothy Kinsella (Brown University, USA).
(§3) The viability of cells was determined in response to the newly synthesized compounds using the MTT (Sigma-Aldrich) assay. Briefly, cells were seeded into 96-well plates and allowed to attach overnight. Then, cells were exposed to various concentrations of compounds for 24, 48 or 72 h. Negative controls were treated with the same amount of DMSO solvent (1%). After treatment, the MTT solution (0.4 mg/ml) was added to each well and allowed to react with cells for 2–3 h at 37 °C. Next, the medium was removed, the formazan product formed was dissolved in 100 μl of DMSO, and the absorbance was determined at 540 nm using an ASYS UVM340 microplate reader (Biochrom Ltd.). The IC50 value, which represents the concentration of the compound required to inhibit cell growth by 50% compared to vehicle, was calculated using GraphPad Prism 8 software based on the curves plotting survival against dose averaged from at least three independent experiments.

[2] = system: A-549 cells; experiment: MTT cell viability assay, A-549; assay type: cell-based, human
Protocol: as §1, §2, §3

[3] = system: MCF-7 cells; experiment: MTT cell viability assay, MCF-7; assay type: cell-based, human; conditions: Homo sapiens, MCF7, 72 h, IC50 ± SD
Protocol: as §1, §2, §3

[4] = system: HEK293 cells; experiment: MTT cell viability assay, HEK293; assay type: cell-based, human; conditions: Homo sapiens, HEK293, IC50 ± SD
[5] = system: HCT-116 cells; experiment: Colony formation (clonogenic) assay; assay type: cell-based, human; conditions: HCT-116, 24 h pretreatment, 9 days culture
Protocol: A total of 500 HCT-116 cells/well was seeded into six-well plates. After attachment, cells were pretreated with DMSO (1%) or various concentrations of 20d and 19b for 24 h. Following incubation, the medium was changed, and cells were cultured for 9 days. After culturing, cells were washed with phosphate-buffered saline (PBS), fixed with 100% methanol for 30 min, and then stained with 0.5% crystal violet for 15 min. The plates were air-dried, and visible colonies were counted using ImageJ software. The percentage viability of cells was calculated in comparison to the control.

[6] = system: HCT-116 cells; experiment: Cell cycle distribution analysis by flow cytometry (PI staining); assay type: cell-based, human; conditions: HCT-116, 24 to 72 h, vs vehicle
Protocol: Based on their antiproliferative activity, 20d and 19b were evaluated for their effect on cell cycle phase distribution and DNA content by flow cytometry.
HCT-116 and A-549 cells were seeded into culture plates and allowed to attach overnight. Then, cells were incubated with the investigated compounds for the indicated time points. After incubation, the harvested cells were fixed with ice-cold 75% ethanol and stored overnight at − 20 °C. Next, cells were rehydrated with PBS in ice for 15 min and washed twice in PBS. Finally, cells were stained with […] propidium iodide (PI) and […] RNase A in PBS for 30 min at room temperature. Cell cycle distribution was determined using a Guava easyCyte 8 flow cytometer (Merck Millipore) and FlowJo v10 software.

COc1cc(-c2ccccc2)c2c(n1)C(OC(=O)Nc1ccc([N+](=O)[O-])cc1)CCC2 (stereo not shown) [Compound 19b, (2-methoxy-4-phenyl-5,6,7,8-tetrahydroquinolin-8-yl) N-(4-nitrophenyl)carbamate]
IC50 ([1]; Homo sapiens, HCT-116, 72 h): ~13 µM | IC50 [1]: 13.5 ± 0.2 µM | fold lower concentration than Cisplatin suppressing 50% of cell viability ([2]; A-549): 5 fold | IC50 ([2]; Homo sapiens, A549, MTT, 72 h, IC50 ± SD): 15.7 ± 2.56 µM | IC50 [3]: > 50 µM | IC50 [4]: > 50 µM | formation of colonies [5]: effectively inhibited the formation of colonies in a concentration-dependent manner | increase in the number of cells in the G0/G1 phase [6]: < 14% | number of cells in the S-phase [6]: substantial decrease | melting point: 183 to 185 °C
